We go through one compound from patent EP0723771A2, “Agent and process for permanent hair waving” (Wella Aktiengesellschaft, priority 1995, dated 1996).

The conditions of the test: lower pH values (pH = 7 or 8); conclusion from Tabelle 1. The protocol:
Zum Vergleich der Wellwirksamkeit wurden an blondierten Haarsträhnen aus mitteleuropäischem Haar Wellstabilitäten ermittelt. Hierzu wurden 16,5 Zentimeter lange, aus etwa 100 Haaren bestehende Haarsträhnen auf Wickler mit einem Innendurchmesser von 3 Millimetern gewickelt und mit einer 87 mmol Reduktionsmittel pro 100 g Lösung enthaltenden, auf den jeweiligen pH-Wert eingestellten, Reduktionsmittellösung bei 50 Grad Celsius 20 Minuten lang behandelt, wobei eine Menge von 1,2 ml Reduktionsmittellösung pro Gramm Haarsträhne verwendet wurde.
Anschließend wurde das Haar mit einer 3-prozentigen wäßrigen Wasserstoffperoxidlösung oxidativ nachbehandelt, getrocknet und sodann 4 Stunden lang in Wasser ausgehängt. Im Anschluß hieran wurde die Wellstabilität bestimmt.
Die Wellstabilitäten wurden hierbei nach der folgenden Formel ermittelt: [formula] I0 = Gesamtlänge der nicht umgeformten, gestreckten Strähne (16,5 Zentimeter) It = Länge der abgewickelten, ausgehängten Strähne nach 240 Minuten I1 = Länge der umgeformten, aufgewickelten Strähne bei einem Wickelinnendurchmesser von 3 mm (I1 = 35 Millimeter)
Als Reduktionsmittel wurden Cysteamin (Formel (I) mit R = H) und N-Mesylcysteamin (Formel (I) mit R = SO2CH3) sowie als Vergleichsstandard eine auf pH = 9 eingestellte Glycerinmonothioglycolat-Lösung (Wellstabilität = 100 %) verwendet. […]

For the compound `CS(=O)(=O)NCCS` [R = -SO2-CH3, N-2-Mercaptoethylmethansulfonsäureamid], the “Wellwirksamkeit gegenüber Cysteamin” value is “signifikant höhere Wellwirksamkeit”.
